In brackets after ≈: the same amount, converted by molar mass. Where two headings read alike, the source gives them in different places. A value given as a limit tells only on which side of the number the result lay.

A short description of data set [1]: Metabolic (microsomal) stability assay, HLM. Format: in vitro ADME. The following applies: human liver microsomes, 1 μM test compound, predicted clearance as percent of liver blood flow. As for the experimental part: The metabolic degradation of the test compound is assayed at 37° C. with pooled liver microsomes (mouse (MLM), rat (RLM) or human (HLM)). The final incubation volume of 48 μL per time point contains TRIS buffer (pH 7.5; 0.1 M), magnesium chloride (6.5 mM), microsomal protein (0.5 mg/mL for mouse/rat, 1 mg/mL for human specimens) and the test compound at a final concentration of 1 μM. Following a short preincubation period at 37° C., the reactions are initiated by addition of 12 μL beta-nicotinamide adenine dinucleotide phosphate, reduced form (NADPH, 10 mM) and terminated by transferring an aliquot into solvent after different time points (0, 5, 15, 30, 60 min). Additionally, the NADPH-independent degradation is monitored in incubations without NADPH, terminated at the last time point by addition of acetonitrile. The quenched incubations are pelleted by centrifugation (4,000 rpm, 15 min). An aliquot of the supernatant is assayed by LC-MS/MS to quantify the concentration of parent compound in the individual samples.
In vitro intrinsic clearance (CLint, in vitro) is calculated from the time course of the disappearance of the test drug during the microsomal incubation. Each plot is fitted to the first-order elimination rate constant as C(t)=C0*exp(−ke*t), where C(t) and C0 are the concentration of unchanged test drug at incubation time t and that at preincubation and ke is the disappearance rate constant of the unchanged drug. Subsequently, CLint, in vitro (μL min^−1·amount protein) values are converted to predicted CLint, in vivo (mL min^−1 kg^−1) from incubation parameters according to the equation CLint, in vivo=CLint, in vitro×(incubation volume (ml)/amount protein (mg))×(amount protein (mg)/g liver tissue)×(liver weight/body wt.). For better across species comparison the predicted clearance is expressed as percent of the liver blood flow [% QH] (mL min^−1 kg^−1) in the individual species. In general, high stability (corresponding to low % QH) of the compounds across species is desired.

In a further data set the target is T1, KRAS (WT)::SOS1 (Homo sapiens, UniProt P01116, C118S).
T1 construct: KRAS (WT) 1-169, N-terminal 6His-tag for purification, cleaved off; 6His-tag (N, cleaved yes); TEV cleavage site
T1 sequence (P01116 1-169 isoform P01116-2 C118S): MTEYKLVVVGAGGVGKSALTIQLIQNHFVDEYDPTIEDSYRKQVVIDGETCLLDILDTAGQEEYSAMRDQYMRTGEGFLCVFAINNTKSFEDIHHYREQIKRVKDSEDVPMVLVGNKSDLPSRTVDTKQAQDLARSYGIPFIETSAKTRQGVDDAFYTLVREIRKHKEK
Nature of the data set: KRAS::SOS1 AlphaScreen binding assay, KRAS WT. As for the experimental part: (§1) Low IC50 values in this assay setting are indicative of strong inhibition of protein-protein interaction between SOS1 and KRAS:
(§2) These assays measure the inhibitory effect of compounds on KRAS mutant protein-protein interactions using the Alpha Screen technology by Perkin Elmer.
(§3) For the chosen highest assay concentration of 100 μM, 150 nL of compound solution are transferred from a 10 mM DMSO compound stock solution. A series of eleven fivefold dilutions per compound are transferred to the assay plate, compound dilutions are tested in duplicates. DMSO are added as backfill to a total volume of 150 nL.
(§4) The assays run on a fully automated robotic system in a darkened room below 100 Lux. To 150 nl of compound dilution 10 μl of a mix including KRAS mutant protein, SOS1 (final assay concentrations see above) and GDP nucleotide (Sigma G7127; final assay concentration 10 μM) in assay buffer (1×PBS, 0.1% BSA, 0.05% Tween 20) are added into columns 1-24. After 30 minutes incubation time 5 μl of Alpha Screen bead mix in assay buffer are added into columns 1-23.
(§5) Plates are kept at room temperature in a darkened incubator. After an additional 60 minutes incubation time the signal is measured in a PerkinElmer Envision HTS Multilabel Reader using the AlphaScreen specs from PerkinElmer.
(§6) IC50 values are calculated and analyzed with Boehringer Ingelheim's MEGALAB IC50 application using a 4 parametric logistic model.
(In general: In Alpha technology, singlet oxygen from a donor bead excites a nearby acceptor bead.)

The target in the next data set is T2, KRAS (G12D)::SOS1 (Homo sapiens, UniProt P01116, G12D).
T2 construct: KRAS (G12D) 1-169, N-terminal 6His-tag, C-terminal avi-tag; 6His-tag (N); purchased Xtal BioStructures, Inc. (KRAS G12D); Viva Biotech Ltd (SOS1)
T2 sequence (P01116 1-169 isoform P01116-2 G12D): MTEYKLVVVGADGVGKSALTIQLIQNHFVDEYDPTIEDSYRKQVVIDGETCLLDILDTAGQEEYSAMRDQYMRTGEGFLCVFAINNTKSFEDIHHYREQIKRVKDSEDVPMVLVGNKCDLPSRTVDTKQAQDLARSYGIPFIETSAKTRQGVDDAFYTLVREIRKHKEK
The data set is described as follows: KRAS::SOS1 AlphaScreen binding assay, KRAS G12D. As for the experimental part: as §1, §2, §3, §4, §5, §6

The next data set has as its target T3, KRAS (G12C)::SOS1 (Homo sapiens, UniProt P01116, C118S/C51S/C80L/G12C).
T3 construct: KRAS (G12C) 1-169, N-terminal 6His-tag for purification, cleaved off; 6His-tag (N, cleaved yes)
The data set is described as follows: KRAS::SOS1 AlphaScreen binding assay, KRAS G12C. As for the experimental part: as §1, §2, §3, §4, §5, §6

Another data set concerns the target KRAS G12C Ba/F3 cells (Homo sapiens, UniProt P01116, G12C, cells depend on it). Nature of the data set: Ba/F3 proliferation assay, KRAS G12C. Format: cell-based. Conditions: 72 h, AlamarBlue; read-out: KRAS G12C Ba/F3 IC50. As for the experimental part: (§7) To generate KRASG12-dependent Ba/F3 models, Ba/F3 cells are transduced with retroviruses containing vectors that harbor KRASG12 isoforms. Platinum-E cells (Cell Biolabs) are used for retrovirus packaging. Retrovirus is added to Ba/F3 cells. To ensure infection, 4 μg/mL polybrene is added and cells are spinfected. […] Cells with an infection efficiency of 10% to 20% are further cultivated and puromycin selection with 1 μg/mL is initiated. As a control, parental Ba/F3 cells are used to show selection status. Selection is considered successful when parental Ba/F3 cells cultures died. To evaluate the transforming potential of KRASG12 mutations, the growth medium is no longer supplemented with IL-3. Ba/F3 cells harboring the empty vector are used as a control. Approximately ten days before conducting the experiments, puromycin is left out. […] All treatments are performed in technical duplicates. […] AlamarBlue™(ThermoFisher), a viability stain, is added and fluorescence measured in the PerkinElmer Envision HTS Multilabel Reader. The raw data are imported into and analyzed with the Boehringer Ingelheim proprietary software MegaLab (curve fitting based on the program PRISM, GraphPad Inc.).
For orientation: The colour change of resazurin is a common sign of viable cells or microbes.

The next data set deals with KRAS G12D Ba/F3 cells (Homo sapiens, UniProt P01116, G12D, cells depend on it). Nature of the data set: Ba/F3 proliferation assay, KRAS G12D. Format: cell-based. The following applies: 72 h, AlamarBlue; read-out: KRAS G12D Ba/F3 IC50. As for the experimental part: as §7
Sequence of KRAS G12D Ba/F3 cells (P01116 whole entry G12D): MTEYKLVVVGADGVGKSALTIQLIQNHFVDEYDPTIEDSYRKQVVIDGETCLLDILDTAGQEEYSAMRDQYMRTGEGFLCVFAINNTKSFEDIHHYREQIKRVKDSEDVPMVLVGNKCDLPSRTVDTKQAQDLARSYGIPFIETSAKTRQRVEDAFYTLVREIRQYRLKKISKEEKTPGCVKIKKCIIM
Data set [2] in a line: Solubility measurement (DMSO solution precipitation method). Type of data set: physicochemical. Conditions: aqueous buffer, kinetic from dmso stock, ambient temperature. As for the experimental part:
The DMSO solution is diluted with an aqueous medium (McIlvaine buffer with pH=4.5 or 6.8) to a final concentration of 250 μM. After 24 h of shaking at ambient temperature a potentially formed precipitate is removed by filtration. The concentration of the test compound in the filtrate is determined by LC-UV methods by calibrating the signal to the signal of a reference solution with complete dissolution of the test compound in acetonitrile/water (1:1) with known concentration.

Another data set addresses KRAS G12V Ba/F3 cells (Homo sapiens, UniProt P01116, G12V, cells depend on it). The data set is described as follows: Ba/F3 proliferation assay, KRAS G12V. Type of data set: cell-based. The following applies: 72 h, AlamarBlue; read-out: KRAS G12V Ba/F3 IC50. As for the experimental part:
as §7

The mark [3] stands for this setting: McIlvaine buffer pH 4.5, 24 h, read-out: solubility pH 4.5.
[4] abbreviates: McIlvaine buffer pH 6.8, 24 h, read-out: solubility pH 6.8.

Sequence of KRAS G12C Ba/F3 cells (P01116 whole entry G12C, canonical isoform): as the sequence (P01116 whole entry G12D) above, with D12C counted along it
T3 sequence (P01116 1-169 isoform P01116-2 G12C/C51S/C80L/C118S): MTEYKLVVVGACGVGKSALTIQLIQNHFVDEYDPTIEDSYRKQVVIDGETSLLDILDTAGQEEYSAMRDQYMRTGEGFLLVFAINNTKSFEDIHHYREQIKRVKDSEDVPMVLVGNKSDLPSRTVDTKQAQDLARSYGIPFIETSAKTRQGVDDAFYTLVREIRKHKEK
Sequence of KRAS G12V Ba/F3 cells (P01116 whole entry G12V): as the sequence (P01116 whole entry G12D) above, with D12V counted along it

For orientation: IC50 means the concentration that gives 50% inhibition. Low readings indicate greater potency, high ones weaker potency. Usually solubility stands for the dissolved amount per volume that the medium holds. Turning to `C[C@H]1CN(C2CCOCC2)CCCN1c1nccc(-c2noc3c2CCC[C@@]32CCCc3sc(N)c(C#N)c32)n1` (single isomer, unassigned) [IIg-1], the “HLM QH” value in data set [1] is greater than 88%. The figures for the IC50 at KRAS (WT)::SOS1, on KRAS (G12D)::SOS1 and on KRAS (G12C)::SOS1 were 25 nM, 4 nM and 10 nM, respectively. Besides, the GI50 was found to be 10 nM at KRAS G12C Ba/F3 cells and 23 nM at KRAS G12D Ba/F3 cells. Also, the solubility at 24 h in data set [2] (setting [3]) was 107 µg/mL (≈ 191 µM); in data set [2] (setting [4]), less than 1 µg/mL.
Regarding `C[C@H](Oc1nccc(-c2n[nH]c3c2CCCC32CCCc3sc(N)c(C#N)c32)n1)[C@@H]1CCCN1C` (stereo partly drawn) [IIIa-1], the results for the IC50 at KRAS (G12D)::SOS1 and on KRAS (G12C)::SOS1 were 16 nM and 28 nM, respectively. The figures for the GI50 at KRAS G12C Ba/F3 cells and on KRAS G12D Ba/F3 cells were 930 nM and 697 nM, respectively.
Consider `C[C@H]1CNCCCN1c1nccc(-c2nn(C)c3c2CCC32CCCc3sc(N)c(C#N)c32)n1` (stereo partly drawn) [IIIb-1], for which the “HLM QH” value in data set [1] was 31%. Moreover, the IC50 was 1770 nM at KRAS (G12D)::SOS1 and 1590 nM at KRAS (G12C)::SOS1. Moreover, the GI50 at KRAS G12C Ba/F3 cells was 11500 nM; at KRAS G12D Ba/F3 cells, 15100 nM; at KRAS G12V Ba/F3 cells it was 10400 nM.
With `C[C@H](Oc1nccc(-c2nnn3c2CCCC32CCCc3sc(N)c(C#N)c32)n1)[C@@H]1CCCN1C` (stereo partly drawn) [IVa-1], in data set [1], the “HLM QH” value was 80%. Besides, the IC50 at KRAS (G12D)::SOS1 was 18 nM; at KRAS (G12C)::SOS1, 56 nM. Besides, the GI50 at KRAS G12C Ba/F3 cells worked out at 521 nM; on KRAS G12D Ba/F3 cells, 381 nM.
Regarding `C[C@H]1CNCCCN1c1cccc(-c2onc3c2CCC[C@@]32CCCc3sc(N)c(C#N)c32)n1` [Ib-3], the “HLM QH” value in data set [1] is on record as less than 24%. Besides, the IC50 at KRAS (G12D)::SOS1 was 8 nM; on KRAS (G12C)::SOS1 it was 19 nM. For the same compound, the GI50 on KRAS G12C Ba/F3 cells came to 317 nM.
Regarding `C[C@H]1CN(CC2CC2)CCCN1c1nccc(-c2onc3c2CCC[C@@]32CCCc3sc(N)c(C#N)c32)n1` [Ig-1], in data set [1], the “HLM QH” value is listed as greater than 88%. Besides, the IC50 at KRAS (G12D)::SOS1 came out at 3 nM; at KRAS (G12C)::SOS1, 8 nM. In addition, the figures for the GI50 on KRAS G12C Ba/F3 cells and at KRAS G12D Ba/F3 cells were 89 nM and 48 nM, respectively. For the same compound, the values for the solubility at 24 h in data set [2] (setting [3]) and in data set [2] (setting [4]) were 23 µg/mL (≈ 43.4 µM) and 10 µg/mL (≈ 18.9 µM), respectively.
In the case of `C[C@H]1CN(C2CCOC2)CCCN1c1nccc(-c2onc3c2CCC[C@@]32CCCc3sc(N)c(C#N)c32)n1` (stereo partly drawn) [Ig-2], the figures for the IC50 on KRAS (G12D)::SOS1 and on KRAS (G12C)::SOS1 were 4 nM and 12 nM, respectively. The GI50 stood at 123 nM at KRAS G12C Ba/F3 cells and 174 nM at KRAS G12D Ba/F3 cells. The results for the solubility at 24 h in data set [2] (setting [3]) and in data set [2] (setting [4]) were greater than 110 µg/mL and less than 1 µg/mL, respectively.
Turning to `C[C@@H](O)CN1CCCN(c2nccc(-c3onc4c3CCC[C@@]43CCCc4sc(N)c(C#N)c43)n2)[C@@H](C)C1` [Ig-4], the “HLM QH” value in data set [1] is recorded as greater than 88%. Also, the half-inhibitory concentration (IC50) at KRAS (WT)::SOS1 came out at 21 nM; at KRAS (G12D)::SOS1, 3 nM; on KRAS (G12C)::SOS1 it was 6 nM. Further, the values for the GI50 on KRAS G12C Ba/F3 cells and at KRAS G12D Ba/F3 cells were 108 nM and 88 nM, respectively. Further, the solubility at 24 h in data set [2] (setting [3]) was greater than 153 µg/mL; in data set [2] (setting [4]), 76 µg/mL (≈ 142 µM).

Values taken from patent US20250129096A1, “ANNULATED 2-AMINO-3-CYANO THIOPHENES AND DERIVATIVES FOR THE TREATMENT OF CANCER” (Boehringer Ingelheim Int'l GmbH Corp., priority 2021, published 2025).
